Results taken from patent US20130297040A1, “IMPLANT HAVING A CORE AND A TUBE ENCASING THE CORE” (UNIVERSITE DE LIEGE, priority 2011, published 2013).

Experiment: Pharmacokinetic study of celecoxib implants in Wistar rats

Question: Which results are given for NS(=O)(=O)c1ccc(-n2nc(C(F)(F)F)cc2-c2ccc(CO)cc2)cc1 [HO-celecoxib]?
Answer: presence of the metabolite HO-celecoxib after implantation (celecoxib implant): present in the rats during more than two years; concentration of HO-celecoxib in peritoneal liquid, intraperitoneal vs subcutaneous implant (peritoneal liquid): tendency to a higher concentration; concentration of HO-celecoxib in serum, intraperitoneal vs subcutaneous implant (serum): No differences

Question: With NS(=O)(=O)c1ccc(-n2nc(C(F)(F)F)cc2-c2ccc(C(=O)O)cc2)cc1 [HOOC-celecoxib] as the compound, how does the “presence of the metabolite HOOC-celecoxib after implantation” value (celecoxib implant) read?
Answer: Its value is “present in the rats during more than two years”.

Question: What about the “concentration of HOOC-celecoxib in the serum and in the PF, intraperitoneal vs subcutaneous implant” value (serum and peritoneal liquid) of the same compound?
Answer: Its value is “No differences”.

Question: With Cc1ccc(-c2cc(C(F)(F)F)nn2-c2ccc(S(N)(=O)=O)cc2)cc1 [celecoxib, reference compound] as the compound, how does the metabolism of celecoxib (after implantation of celecoxib implant) read?
Answer: Its metabolism of celecoxib is “metabolized in rats”.
